From patent EP0946545B1, “NOVEL CARBOXY SUBSTITUTED CYCLIC CARBOXAMIDE DERIVATIVES” (Aventis Pharmaceuticals Inc., priority 1996, dated 1998)
pIC50: −log10 of the molar value. Structures can show the parent of a compound that is named as a salt.

Experiments:
NK1 receptor = molecular target: T1, NK1 receptor (Cavia porcellus, UniProt P30547); assay: Antagonism of iodinated tachykinin binding to NK1 receptors (Example A); design: species or system guinea pig
T1 construct: evaluated in guinea pig lungs (Keystone Biologicals, Cleveland, OH); tissue Keystone Biologicals, Cleveland, OH; host or cells: guinea pig lung membranes
T1 sequence (P30547 whole entry): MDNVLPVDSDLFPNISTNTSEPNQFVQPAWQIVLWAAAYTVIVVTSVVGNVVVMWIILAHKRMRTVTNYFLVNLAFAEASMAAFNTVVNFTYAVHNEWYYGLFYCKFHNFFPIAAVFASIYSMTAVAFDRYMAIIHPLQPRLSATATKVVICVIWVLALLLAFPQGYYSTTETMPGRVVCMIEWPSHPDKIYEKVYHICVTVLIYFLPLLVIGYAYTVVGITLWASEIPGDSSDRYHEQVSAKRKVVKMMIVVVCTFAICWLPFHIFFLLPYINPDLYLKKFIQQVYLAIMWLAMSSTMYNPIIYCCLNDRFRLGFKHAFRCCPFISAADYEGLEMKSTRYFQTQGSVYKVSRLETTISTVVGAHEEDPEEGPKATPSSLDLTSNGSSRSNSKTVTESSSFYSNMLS
Description: (§1) One skilled in the art can determine the NK1 receptor and NK2 receptor affinity in vitro as follows. The NK1 receptor affinity of tachykinin antagonists is evaluated in guinea pig lungs (Keystone Biologicals, Cleveland, OH) and affinity for the NK2 receptor is evaluated in HSKR-1 cells (which are mouse 3T3 fibroblasts expressing the human jejunal NK2 receptor). Tissues or cells are homogenized with a Polytron in 15 volumes of 50 mM Tris-HC1 buffer (pH 7.4, 4°C) and centrifuged. The pellet is resuspended in Tris-HCl buffer and is centrifuged; the pellet is washed twice by resuspension. The final pellet is resuspended at a concentration of 40 mg/ml for tissues and 20 mg/ml for cells in incubation buffer and remains at room temperature for at least 15 min prior to use. Receptor binding is initiated by addition of 250 ul membrane preparation in duplicate to 0.1 nM of the following radioligands: ^125I-Bolton Hunter Lys-3 labeled substance P and ^125iodohistidyl-1-neurokinin A; in a final volume of 500 ul of buffer containing 50 mM Tris-HCl (pH 7.4 at room temperature), 0.1% bovine serum albumin, 2 mM mangenese chloride, 40 ug/ml bacitracin, 4 µg/ml leupeptin and chymostatin, 10 µM thiorphan and various doses of the putative tachykinin antagonists. Incubations are performed at room temperature for 90 min (NK1 receptor assays) or 2 hr (NK2 receptor assay); binding is terminated by addition of 50 mM Tris-HCl buffer (pH 7.4, 4°C) and filtration under vacuum through GF/B filters presoaked with 0.1% polyethyleneimine (NK1 receptor assays) or 0.5% bovine serum albumin (NK2 receptor assay). Filter bound radioactivity is quantitated in a gamma counter. Nonspecific binding is defined as binding in the presence of 1 µM substance P or neurokinin A. Specific binding is calculated by subtracting nonspecific binding from total binding. Competition of iodinated SP or NKA binding by test compounds or standards is expressed as a percentage of this maximum binding. IC50 values (concentration required to inhibit 50% of receptor binding) are generated for each of the test compounds by nonlinear regression using an iterative curve fitting program (GraphPAD Inplot, San Diego, CA).
(§2) Tackykinin receptor binding (IC50 values) for representative compounds of the present invention is found in Table 1. The values in Table 1 were determined by the method of present Example A and represent the mean of several experiments, except where noted. […]

[1] = molecular target: T2, human jejunal NK2 receptor (Homo sapiens, UniProt P21452); assay: Antagonism of iodinated tachykinin binding to NK2 receptors (Example A)
T2 construct: expressed in transfected cells; host or cells: HSKR-1 cells (mouse 3T3 fibroblasts)
T2 sequence (P21452 1-398): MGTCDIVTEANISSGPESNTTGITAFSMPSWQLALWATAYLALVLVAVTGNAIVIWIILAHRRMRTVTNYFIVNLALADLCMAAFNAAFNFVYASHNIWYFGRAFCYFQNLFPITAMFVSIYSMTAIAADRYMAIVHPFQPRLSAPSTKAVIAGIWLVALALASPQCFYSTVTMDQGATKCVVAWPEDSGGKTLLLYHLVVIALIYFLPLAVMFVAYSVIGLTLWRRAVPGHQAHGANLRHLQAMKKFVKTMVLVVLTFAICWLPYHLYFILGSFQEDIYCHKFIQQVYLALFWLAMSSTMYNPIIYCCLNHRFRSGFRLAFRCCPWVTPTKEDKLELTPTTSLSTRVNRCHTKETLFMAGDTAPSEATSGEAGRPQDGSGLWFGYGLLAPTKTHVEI
Description: as §1, §2

SMILES: CCOC(=O)CN1CCN(C(=O)C2(c3cccnc3)CCN(CC[C@]3(c4ccc(Cl)c(Cl)c4)CCN(C(=O)c4cc(OC)c(OC)c(OC)c4)C3)CC2)CC1 [Example 5.5, (R)-1-(3,4,5-trimethoxybenzoyl)-3-(2-(4-(pyrid-3-yl)-4-((4-carboethoxymethylpiperazin-1-yl)carboxamido)piperidin-1-yl)ethyl)-3-(3,4-dichlorophenyl)pyrrolidine hydrochloric acid salt]
- pIC50 (NK1 receptor): 8.20
- pIC50 [1]: 8.60

SMILES: COc1cc(C(=O)N2CC[C@](CCN3CCC(C(=O)N4CCN(CC(=O)O)CC4)(c4cccnc4)CC3)(c3ccc(Cl)c(Cl)c3)C2)cc(OC)c1OC [Example 6.1, (R)-1-(3,4,5-trimethoxybenzoyl)-3-(2-(4-(pyrid-3-yl)-4-((4-carboxymethylpiperazin-1-yl)carboxamido)piperidin-1-yl)ethyl)-3-(3,4-dichlorophenyl)pyrrolidine hydrochloric acid salt]
- pIC50 (NK1 receptor): 7.79
- pIC50 [1]: 7.83

SMILES: CCOC(=O)CN1CCN(C(=O)C2(c3ccccc3)CCN(CC[C@]3(c4ccc(Cl)c(Cl)c4)CCN(C(=O)c4cc(OC)c(OC)c(OC)c4)C3)CC2)CC1 [Example 8.3.1, (R)-1-(3,4,5-trimethoxvbenzoyl)-3-(2-(4-phenyl-4-((4-carboethoxymethylpiperazin-1-yl)carboxamido)piperidine)ethyl)-3-(3,4-dichlorophenyl)pyrrolidine hydrochloric acid salt]
- pIC50 (NK1 receptor): 8.11
- pIC50 [1]: 8.62

SMILES: COc1cc(C(=O)N2CC[C@](CCN3CCC(C(=O)N4CCN(CC(=O)O)CC4)(c4ccccc4)CC3)(c3ccc(Cl)c(Cl)c3)C2)cc(OC)c1OC [Example 9.2, (R)-1-(3,4,5-trimethoxybenzoyl)-3-(2-(4-phenyl-4-((4-carboxymethylpiperazin-1-yl)carboxamido)piperidine)ethyl)-3-(3,4-dichlororophenyl)pyrrolidine hydrochloric acid salt]
- pIC50 (NK1 receptor): 8.25
- pIC50 [1]: 8.50

SMILES: CCOC(=O)CN1CCN(C(=O)C2(c3ccccc3)CCN(CC[C@]3(c4ccc(Cl)c(Cl)c4)CCN(C(=O)c4cc(-n5cnnn5)ccc4OC)C3)CC2)CC1 [Example 10.4, (R)-1-(2-methoxy-5-(1H-tetrazol-1-yl)benzoyl)-3-(2-(4-phenyl-4-((4-carboethoxymethylpiperazin-1-yl)carboxamido)piperidine)ethyl)-3-(3,4-dichlorophenyl)pyrrolidine hydrochloric acid salt]
- pIC50 (NK1 receptor): 8.07
- pIC50 [1]: 7.29

SMILES: COc1ccc(-n2cnnn2)cc1C(=O)N1CC[C@](CCN2CCC(C(=O)N3CCN(CC(=O)O)CC3)(c3ccccc3)CC2)(c2ccc(Cl)c(Cl)c2)C1 [Example 11.1, (R)-1-(2-methoxy-5-(1H-tetrazol-1-yl)benzoyl)-3-(2-(4-phenyl-4-((4-carboxymethylpiperazin-1-yl)carboxamido)piperidin-1-yl)ethyl)-3-(3,4-dichlorophenyl)pyrrolidine hydrochloric acid salt]
- pIC50 (NK1 receptor): 7.98
- pIC50 [1]: 7.15

SMILES: COc1cc(C(=O)N2CC[C@@](CCN3CCC(C(=O)N4CCN(CC(=O)O)CC4)(c4ccccc4)CC3)(c3ccc(Cl)c(Cl)c3)C2)cc(OC)c1OC [Example 13.3, (S)-1-(3,4,5-trimethoxybenzoyl)-3-(2-(4-phenyl-4-((4-carboxymethylpiperazin-l-yl)carboxamido)piperidine)ethyl)-3-(3,4-dichlorophenyl)pyrrolidine hydrochloric acid salt]
- pIC50 (NK1 receptor): 8.25
- pIC50 [1]: 8.50

SMILES: COC(=O)C1CCCN1C(=O)C1(c2ccccc2)CCN(CCC2(c3ccc(Cl)c(Cl)c3)CCN(C(=O)c3cc(OC)c(OC)c(OC)c3)C2)CC1 [Example 14.1, (R)-1-(3,4,5-Trimethoxybenzoyl)-3-(2-(4-phenyl-4-(((S)-2-carbomethoxypyrrolidin-1-yl)carboxamido)piperidin-1-yl)ethyl)-3-(3,4-dichlorophenyl)pyrrolidine]
- pIC50 (NK1 receptor): 8.36
- pIC50 [1]: 8.35

SMILES: COc1cc(C(=O)N2CC[C@](CCN3CCC(C(=O)N4CCC[C@H]4C(=O)O)(c4ccccc4)CC3)(c3ccc(Cl)c(Cl)c3)C2)cc(OC)c1OC [Example 15.2, (R)-1-(3,4,5-trimethoxybenzonyl)-3-(2-(4-phenyl-4-(((S)-2-carboxypyrrolidin-1-yl)carboxamido)piperidin-1-yl)ethyl)-3-(3,4-dichlorophenyl)pyrrolidine hydrochloric acid salt]
- pIC50 (NK1 receptor): 7.85
- pIC50 [1]: 7.76

SMILES: CCOC(=O)C1CCN(C(=O)C2(c3ccccc3)CCN(CC[C@]3(c4ccc(Cl)c(Cl)c4)CCN(C(=O)c4cc(OC)c(OC)c(OC)c4)C3)CC2)CC1 [Example 21.1, (R)-1-(3,4,5-Trimethoxybenzoyl)-3-(2-(4-phenyl-4-((4-carboethoxypiperidin-1-yl)carboxamido)piperidin-1-yl)ethyl)-3-(3,4-dichlorophenyl)pyrrolidine]
- pIC50 (NK1 receptor): 7.98
- pIC50 [1]: 8.64

SMILES: COc1cc(C(=O)N2CC[C@](CCN3CCC(C(=O)N4CCC(C(=O)O)CC4)(c4ccccc4)CC3)(c3ccc(Cl)c(Cl)c3)C2)cc(OC)c1OC [Example 22.1, (R)-1-(3,4,5-trimethoxybenzoyl)-3-(2-(4-phenyl-4-((4-carboxypiperidin-1-yl)carboxamido)piperidin-1-yl)ethyl)-3-(3,4-dichlorophenyl)pyrrolidine hydrochloric acid salt]
- pIC50 (NK1 receptor): 8.39
- pIC50 [1]: 8.20

SMILES: CCOC(=O)CN1CCN(C(=O)C2(c3ccccc3)CCN(CCC3(c4ccc(F)c(F)c4)CCN(C(=O)c4cc(OC)c(OC)c(OC)c4)C3)CC2)CC1 (centres unmarked) [Example 23.8, 1-(3,4,5-trimethoxvbenzoyl)-3-(2-(4-phenyl-4-((4-carboethoxymethylpiperazin-1-yl)carboxamido)piperidin-1-yl)ethyl)-3-(3,4-difluorophenyl)pyrrolidine hydrochloric acid salt]
- pIC50 (NK1 receptor): 8.08
- pIC50 [1]: 7.93

SMILES: CCOC(=O)C1CN(C(=O)C2(c3ccccc3)CCN(CC[C@]3(c4ccc(Cl)c(Cl)c4)CCN(C(=O)c4cc(OC)c(OC)c(OC)c4)C3)CC2)CCO1 (stereo partly drawn) [Example 25.2, (R)-1-(3,4,5-trimethoxybenzoyl)-3-(2-(4-phenyl-4-((2-carboethoxymorpholin-4-yl)carboxamido)piperidin-1-yl)ethyl)-3-(3,4-dichlorophenyl)pyrrolidine fumaric acid salt]
- pIC50 (NK1 receptor): 7.84
- pIC50 [1]: 8.19

SMILES: COc1cc(C(=O)N2CC[C@](CCN3CCC(C(=O)N4CCOC(C(=O)O)C4)(c4ccccc4)CC3)(c3ccc(Cl)c(Cl)c3)C2)cc(OC)c1OC (stereo partly drawn) [Example 26.1, (R)-1-(3,4,5-Trimethoxybenzoyl)-3-(2-(4-phenyl-4-((2-carboxymorpholin-4-yl)carboxamido)piperidin-1-yl)ethyl)-3-(3,4-dichlorophenyl)pyrrolidine]
- pIC50 (NK1 receptor): 8.00
- pIC50 [1]: 8.24

SMILES: CCOC(=O)CCN1CCN(C(=O)C2(c3ccccc3)CCN(CC[C@]3(c4ccc(Cl)c(Cl)c4)CCN(C(=O)c4cc(OC)c(OC)c(OC)c4)C3)CC2)CC1 [Example 27.3, (R)-1-(3,4,5-trimethoxvbenzoyl)-3-(2-(4-phenyl-4-((4-carboethoxyethylpiperazin-1-yl)carboxamido)piperidine)ethyl)-3-(3,4-dichlorophenyl)pyrrolidine hydrochloric acid salt]
- pIC50 (NK1 receptor): 8.04
- pIC50 [1]: 8.63

SMILES: COc1cc(C(=O)N2CC[C@](CCN3CCC(C(=O)N4CCN(CCC(=O)O)CC4)(c4ccccc4)CC3)(c3ccc(Cl)c(Cl)c3)C2)cc(OC)c1OC [Example 28.2, (R)-1-(3,4,5-trimethoxybenzoyl)-3-(2-(4-phenyl-4-((4-carboxyethylpiperazin-1-yl)carboxamido)piperidine)ethyl)-3-(3,4-dichlorophenyl)pyrrolidine hydrochloric acid salt]
- pIC50 (NK1 receptor): 7.71
- pIC50 [1]: 8.43
